The subject of this data set is cell layers. The data set can be described thus: USP (87) biological reactivity testing (cytotoxicity). Set-up: key: “severe” reactivity meaning there was nearly complete destruction of all cell layers. It is filed as cell-based. The following applies: dilutions of 50 ppm BAK with EDTA in saline ophthalmic vehicle, down to 5% of use concentration. How it is done:
Testing was conducted by a neutral third party laboratory to determine the cytotoxicity of benzalkonium chloride (BAK) when used as a preservative in a standard topical saline ophthalmic solution vehicle. Test solutions of BAK at various dilutions at the typical preservation concentration used in ophthalmic products (50 ppm) were subject to USP (87) biological reactivity testing and graded according to reactivity. All solutions contained EDTA as an adjunct to enable the BAK to be active against gram negative bacteria. All negative and positive controls were nominal.

As for benzalkonium chloride [BAK], the “USP (87) biological reactivity grade” value was “severe”.

For the origin of these results see patent US12005139B2, “Ophthalmic formulations and related methods” (EternaTear, Inc., priority 2022, dated 2024).
